# Results taken from article PMC3102611, “The inhibition of the mammalian DNA methyltransferase 3a (Dnmt3a) by dietary black tea and coffee polyphenols” (2011).
# Biological target: T1, Dnmt3a (Mus musculus, UniProt O88508)
# T1 construct: C-terminal catalytic domain (Dnmt3a-C)
# Test: Biotin-avidin DNA methylation kinetics assay with [methyl-3H]AdoMet, purified Dnmt3a-C
# Type: biochemical
# T1 sequence (O88508 608-908 limits assumed): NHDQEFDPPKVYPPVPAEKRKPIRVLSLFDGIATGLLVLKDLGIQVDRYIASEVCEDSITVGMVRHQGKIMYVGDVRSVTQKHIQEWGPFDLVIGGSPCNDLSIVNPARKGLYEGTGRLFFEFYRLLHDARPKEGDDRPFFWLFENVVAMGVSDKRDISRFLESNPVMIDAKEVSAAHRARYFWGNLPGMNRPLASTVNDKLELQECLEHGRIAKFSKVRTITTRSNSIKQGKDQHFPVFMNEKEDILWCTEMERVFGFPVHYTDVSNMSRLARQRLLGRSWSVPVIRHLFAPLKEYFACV
structure (smiles),measurement,value
"COC(=O)[C@]1(OC(=O)/C=C/c2ccc(O)c(O)c2)C[C@H](OC(=O)/C=C/c2ccc(O)c(O)c2)[C@H]2O[C@@](C)(OC)[C@](C)(OC)O[C@@H]2C1 [N12, 1,3-dicaffeoyl-muco-quinic acid diacetal]",IC50,35 µM
